Assay results taken from PMC9446799, “Preparation of a camptothecin analog FLQY2 self-micelle solid dispersion with improved solubility and bioavailability” (Journal of Nanobiotechnology, 2022).
Where a name gives a salt, the structure may show the parent alone.

Assays:
HT-29 tumor = assay: Anticancer activity in vivo in HT-29 tumor-bearing mice; parameters: species or system BALB/c mice; details: 100 mpk, i.p./QW, day 28
Description: 0.1 mL suspension of HT-29 cells were inoculated in female BALB/c mice at a density of 2 × 10^7/mL. After the tumors grew to 100–200 mm^3 (the day recorded as D0), the mice were randomly grouped and administered with Irinotecan hydrochloride (100 mpk, i.p./QW) (n = 6), Paclitaxel-albumin (15 mpk, i.v./Q4D) (n = 6), FLQY2-SD (1.5 mpk, p.o./QW) (n = 6), FLQY2-SD (1 mpk, p.o./QW) (n = 6), and saline as a blank control (n = 12). The tumor volume and body weight of the mice were recorded every 2 days. On day 28, the mice were sacrificed, and the tumors were surgically removed and weighed. Some parameters were calculated as follows.
tumor volume (TV): TV=1/2×ab^2
relative tumor volume (RTV): RTV=Vt/V0
tumor growth inhibition (TGI): TGI=(1-VT28-VT0/VC28-VC0)×100%
Where a and b are the length and width of the tumors; V0 and Vt are the tumor volume measured at D0 and at each measurement time Dt; VT28 and VT0 are the mean tumor volume in the treatment group at D28 and D0; VC28 and VC0 are the mean tumor volume in the negative control group at D28 and D0.

[1] = test system: HCT 116 and MIA PaCa-2 cells; assay: MTT cytotoxicity assay; format: cell-based, Human
Description: (§1) The sample preparation: FLQY2 was dissolved in DMSO as a stock solution, and the stock solution was diluted by DMEM medium as a working solution. FLQY2-SD/ FLQY2-PM powder was dissolved in water, then the FLQY2-SD/FLQY2-PM solution was diluted by DMEM medium.
(§2) The cells were cultured in McCoy’s 5A medium for HCT 116 or DMEM medium for MIA PaCa-2 cells. All mediums contained 10% FBS and 1% penicillin–streptomycin solution. The cytotoxicity of FLQY2/FLQY2-SD was measured against these cells using an MTT assay. Briefly, 1 × 10^4 cells per well were seeded into 96 well plates for 24 h. Different concentrations of FLQY2 /FLQY2-SD solution and blank fresh medium were added to the plates and then incubated for 72 h. After adding MTT solution (5 mg/mL) for 4 h, 150 μL of DMSO was added to dissolve the formazan crystals. Absorbance at 570 nm with the control wavelength of 630 nm was used in infinite M200 pro (Tecan, Switzerland). Cell viability was expressed as a percentage relative to the blank control.

[2] = Identification of metabolites in plasma, urine and feces (UPLC-TripleTOF); details: ESI−, [M-H]-; F, U, P not defined in the table (feces, urine, plasma samples analysed)
Description: The plasma, urine, and feces samples were processed as described above without IS, and the remaining volumes were made up of the precipitant. Chromatographic analysis was performed on an UltiMate 30 (Thermo Fisher Scientific, San Jose, CA, USA). Separation was carried out on an ACQUITY UPLC HSS T3 (1.8 μm, 2.1 × 100 mm) at 40 °C, 2 µL injection volume. In the positive ion mode, the mobile phase consisted of water containing 0.1% formic acid (A) and acetonitrile containing 0.1% formic acid (B). The gradient elution was performed with 5% B for 1.5 min, increasing to 10% B at 2.5 min, then ramping to 40% B at 14 min, rising to 95% B at 22 min, and remaining at 95% B until 25 min, and finally, the column was reconditioned with 5% B for 5 min. The mobile phase consisted of water containing 2 mM ammonium acetate (A) and acetonitrile (B) in the negative ion mode. The gradient elution was the same as in the positive ion mode.
Mass spectrometric analysis was acquired by Peakview 2.2 and MetabolitePilot 2.0.4 software using a quadrupole time-of-flight mass spectrometry (TripleTOF™ 5600, AB Sciex Corporation., Foster City, CA) with MS scans and information dependent acquisition (IDA) MS/MS scans. The mass spectrometer was operated in both positive and negative ion mode with electrospray ionization (ESI) source at 650 ℃. […]

[3] = test system: HCT 116 and Hep G2 cell lines; parameters: method as in PMID 31309350; details: cited from earlier work
MTT cytotoxicity assay = format: cell-based, Human; details: human
Description: as §1, §2

P-gp = details: cited from earlier work
[4] = Inhibition of crystallization (solvent-shift method); format: physicochemical; details: for saturated concentration of FLQY2: in Soluplus aqueous solution (2 mg/mL), 37 °C
Description: Inhibition of crystallization was studied using the solvent-shift method. 3 mL FLQY2 DMSO solution (1 mg/mL) was mixed respectively with six different 30 mL aqueous solution including six carriers (2 mg/mL) and stirred at 120 r/min under 37 °C. 0.5 mL solution was collected at 0.0833, 0.5, 1, 2, 4, 6, 8 h, filtered through 0.22 μm filters, and determined the dissolved FLQY2 by HPLC.

With `CCc1c2c(nc3ccc(OC(=O)N4CCC(N5CCCCC5)CC4)cc13)-c1cc3c(c(=O)n1C2)COC(=O)[C@]3(O)CC` [Irinotecan hydrochloride] the TGI (HT-29 tumor) was 66.5%.
With “Polyvinyl caprolactam-polyvinyl acetate-polyethylene glycol graft copolymer [Soluplus®]” the cell viability [1] was “exceeded 91.0 ± 3.8%”.
In the case of `C=c1c(=O)n2c(c/c1=C(/O)CC)-c1nc3cc4c(cc3c(-c3ccc(C(F)(F)F)cc3)c1C2)OCO4` [M1], the “Source (biological sample in which detected)” value [2] is reported as “F, U, P”.
In the case of `CC[C@@]1(O)C(=O)OCc2c1cc1n(c2=O)Cc2c-1nc1cc3c(cc1c2-c1ccc(C(F)(F)F)cc1)OCO3` [FLQY2, 7-p-trifluoromethylphenyl-FL118], the IC50 [3] is listed as “nM level”, the viability at 2 h, 1 µM (MTT cytotoxicity assay) is listed as over 92.5% and the cytotoxicity [1] is listed as “dose-dependent toxicity”. For the same compound, the efflux ratio (P-gp) was under 2, the “saturated concentration of FLQY2” value ([4]; at 5 min) was 51.60 µg/mL and the “saturated concentration of FLQY2” value ([4]; at 8 h) was 48.76 µg/mL. The crystallization inhibition outcome ([4]; mixture including PEG4000, PEG6000, PVP Va64, HS 15 and P407 (2 mg/mL)) was “crystallization and precipitation”.
With `CC[C@@]1(O)OCc2c1cc1n(c2=O)Cc2c-1nc1cc3c(cc1c2-c1ccc(C(F)(F)F)cc1)OCO3` [M3] the “Source (biological sample in which detected)” value [2] was “F, U, P”.
